Earlier results on three molecules are cited in publication PMC3591511 (Expert reviews in molecular medicine, 2012).

For one data set, the target named is IL-2/IL-2Rα. The conditions noted are these: antagonist of IL-2/IL-2α receptor interaction; ref [53].

As for `CC(C)(C)C[C@H]1N[C@@H](C(=O)NCC[C@H](O)CO)[C@H](c2cccc(Cl)c2)[C@@]12C(=O)Nc1cc(Cl)c(F)cc12.Cl` [MI-219], the “inhibition of complex formation” value in the data set with p53-MDM2 complex (p53-MDM2, ref [58]) is given as ~ 5 nM. In the case of `COc1ccc(C2=N[C@@H](c3ccc(Cl)cc3)[C@@H](c3ccc(Cl)cc3)N2C(=O)N2CCNC(=O)C2)c(OC(C)C)c1` [Nutlin-3], the “activity towards the p53-MDM2 complex” value with p53-MDM2 complex (mid-nanomolar, enantioselective, ref [56]) is listed as ~ 70 nM.

For `CC(C)C[C@@H](N=C(N)N)C(=O)NCC(=O)N1CCC(c2cc(-c3ccc(OCc4ccc(C(=O)O)o4)c(Cl)c3Cl)nn2C)CC1` [SP4206], the Ki (in general, a measure of affinity in units of concentration, obtained from inhibition or displacement) on IL-2/IL-2Rα is 60 nM.
